According to US6358885B1, “Substituted phenylheterocyclic herbicides” (Mississippi State University, priority 1992, dated 2002):

Tests used:
wheat = assay: Test B preemergence/postemergence greenhouse plant response rating 0 to 10; type: in vivo, Triticum aestivum; settings: 0 to 10 scale
Procedure, shortened: (§1)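 Postemergence treatment of plants two to eighteen cm tall ran alongside preemergence treatment of planted seed, each using compound in a non-phytotoxic solvent.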

barnyardgrass = assay: as above; type: in vivo, Echinochloa crus-galli; settings: 0 to 10 scale
Procedure, shortened: as §1

wild oat = assay: as above; type: in vivo, Avena fatua; settings: 0 to 10 scale
Procedure, shortened: as §1

rape = assay: Test C preemergence/postemergence greenhouse plant response rating 0 to 100; type: in vivo, Brassica napus; settings: for Plant response rating, Rape: 62 g/ha, 0 to 100 scale
Procedure, shortened: (§2)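 Compounds in non-phytotoxic solvent applied preemergence to sandy loam one day after planting, postemergence at the 1–4 leaf stage, or to ~2.5 cm floodwater over silt loam.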

blackgrass = assay: as above; type: in vivo, Alopecurus myosuroides; settings: for Plant response rating, Blackgrass: 62 g/ha, 0 to 100 scale
Procedure, shortened: as §2

rice [1] = assay: Test B preemergence/postemergence greenhouse plant response rating 0 to 10; type: in vivo, Oryza sativa; settings: 0 to 10 scale
Procedure, shortened: as §1

morningglory = assay: as above; type: in vivo, Ipomoea hederacea; settings: 0 to 10 scale
Procedure, shortened: as §1

umbrella sedge = assay: Test C flood test plant response rating 0 to 100; type: in vivo, Cyperus difformis
Procedure, shortened: as §2

crabgrass = assay: Test C preemergence/postemergence greenhouse plant response rating 0 to 100; type: in vivo, Digitaria sanguinalis; settings: for Plant response rating, Crabgrass: 62 g/ha, 0 to 100 scale
Procedure, shortened: as §2

cocklebur = assay: Test B preemergence/postemergence greenhouse plant response rating 0 to 10; type: in vivo, Xanthium pensylvanicum; settings: 0 to 10 scale
Procedure, shortened: as §1

sorghum = assay: as above; type: in vivo, Sorghum bicolor; settings: 0 to 10 scale
Procedure, shortened: as §1

rice [2] = assay: Test C flood test plant response rating 0 to 100; type: in vivo, Oryza sativa
Procedure, shortened: as §2

cotton = assay: Test B preemergence/postemergence greenhouse plant response rating 0 to 10; type: in vivo, Gossypium hirsutum; settings: 0 to 10 scale
Procedure, shortened: as §1

[3] = POSTEMERGENCE section, flood test, Rate 1 g/ha
[4] = POSTEMERGENCE section, flood test, Rate 4 g/ha
[5] = Rate 16 g/ha, under POSTEMERGENCE head (flood test species)
[6] = flood test species listed under POSTEMERGENCE, 62 g/ha, 0 to 100 scale

CCN1C(=O)COc2cc(F)c(-c3nn4c(c3Cl)CCCC4)cc21 [Compound 54]
Plant response rating, Wheat (wheat; POSTEMERGENCE, Rate 10 g/ha): 6 | Plant response rating, Wheat (wheat; POSTEMERGENCE, Rate 50 g/ha): 6 | Plant response rating, Wheat (wheat; PREEMERGENCE, Rate 50 g/ha): 3 | Plant response rating, Barnyardgrass (barnyardgrass; POSTEMERGENCE, Rate 10 g/ha): 3 | Plant response rating, Barnyardgrass (barnyardgrass; POSTEMERGENCE, Rate 50 g/ha): 5 | Plant response rating, Barnyardgrass (barnyardgrass; PREEMERGENCE, Rate 10 g/ha): 0 | Plant response rating, Barnyardgrass (barnyardgrass; PREEMERGENCE, Rate 50 g/ha): 3 | Plant response rating, Wild oat (wild oat; POSTEMERGENCE, Rate 10 g/ha): 4 | Plant response rating, Wild oat (wild oat; POSTEMERGENCE, Rate 50 g/ha): 7 | Plant response rating, Wild oat (wild oat; PREEMERGENCE, Rate 50 g/ha): 2 | Plant response rating, Rape (rape; POSTEMERGENCE): 100 | Plant response rating (0 to 100), Rape (rape; POSTEMERGENCE, Rate 1 g/ha): 50 | Plant response rating (0 to 100), Rape (rape; POSTEMERGENCE, Rate 4 g/ha): 50 | Plant response rating, Rape (rape; PREEMERGENCE): 10 | Plant response rating (0 to 100), Rape (rape; PREEMERGENCE, Rate 1 g/ha): 0 | Plant response rating (0 to 100), Rape (rape; PREEMERGENCE, Rate 4 g/ha): 0 | Plant response rating (0 to 100), Rape (rape; Rate 16 g/ha, POSTEMERGENCE): 100 | Plant response rating (0 to 100), Rape (rape; Rate 16 g/ha, PREEMERGENCE): 0 | Plant response rating, Blackgrass (blackgrass; POSTEMERGENCE): 60 | Plant response rating (0 to 100), Blackgrass (blackgrass; POSTEMERGENCE, Rate 1 g/ha): 30 | Plant response rating (0 to 100), Blackgrass (blackgrass; POSTEMERGENCE, Rate 4 g/ha): 40 | Plant response rating, Blackgrass (blackgrass; PREEMERGENCE): 70 | Plant response rating (0 to 100), Blackgrass (blackgrass; PREEMERGENCE, Rate 1 g/ha): 0 | Plant response rating (0 to 100), Blackgrass (blackgrass; PREEMERGENCE, Rate 4 g/ha): 10 | Plant response rating (0 to 100), Blackgrass (blackgrass; Rate 16 g/ha, POSTEMERGENCE): 50 | Plant response rating (0 to 100), Blackgrass (blackgrass; Rate 16 g/ha, PREEMERGENCE): 20 | Plant response rating, Rice (rice [1]; POSTEMERGENCE, Rate 10 g/ha): 3 | Plant response rating, Rice (rice [1]; POSTEMERGENCE, Rate 50 g/ha): 4 | Plant response rating, Rice (rice [1]; PREEMERGENCE, Rate 50 g/ha): 0 | Plant response rating, Morningglory (morningglory; POSTEMERGENCE, Rate 10 g/ha): 9 | Plant response rating, Morningglory (morningglory; POSTEMERGENCE, Rate 50 g/ha): 9 | Plant response rating, Morningglory (morningglory; PREEMERGENCE, Rate 50 g/ha): 3 | Plant response rating (0 to 100), Umbrella sedge (umbrella sedge; [3]): 0 | Plant response rating (0 to 100), Umbrella sedge (umbrella sedge; [4]): 0 | Plant response rating (0 to 100), Umbrella sedge (umbrella sedge; [5]): 10 | Plant response rating Umbrella sedge (umbrella sedge; [6]): 70 | Plant response rating, Crabgrass (crabgrass; POSTEMERGENCE): 50 | Plant response rating (0 to 100), Crabgrass (crabgrass; POSTEMERGENCE, Rate 1 g/ha): 10 | Plant response rating (0 to 100), Crabgrass (crabgrass; POSTEMERGENCE, Rate 4 g/ha): 20 | Plant response rating, Crabgrass (crabgrass; PREEMERGENCE): 50 | Plant response rating (0 to 100), Crabgrass (crabgrass; PREEMERGENCE, Rate 1 g/ha): 0 | Plant response rating (0 to 100), Crabgrass (crabgrass; PREEMERGENCE, Rate 4 g/ha): 0 | Plant response rating (0 to 100), Crabgrass (crabgrass; Rate 16 g/ha, POSTEMERGENCE): 30 | Plant response rating (0 to 100), Crabgrass (crabgrass; Rate 16 g/ha, PREEMERGENCE): 0 | Plant response rating, Cocklebur (cocklebur; POSTEMERGENCE, Rate 10 g/ha): 9 | Plant response rating, Cocklebur (cocklebur; POSTEMERGENCE, Rate 50 g/ha): 10 | Plant response rating, Cocklebur (cocklebur; PREEMERGENCE, Rate 10 g/ha): 0 | Plant response rating, Cocklebur (cocklebur; PREEMERGENCE, Rate 50 g/ha): 0 | Plant response rating, Sorghum (sorghum; POSTEMERGENCE, Rate 10 g/ha): 3 | Plant response rating, Sorghum (sorghum; POSTEMERGENCE, Rate 50 g/ha): 3 | Plant response rating, Sorghum (sorghum; PREEMERGENCE, Rate 50 g/ha): 1 | Plant response rating (0 to 100), Rice Japonica (rice [2]; [3]): 0 | Plant response rating (0 to 100), Rice Japonica (rice [2]; [4]): 0 | Plant response rating (0 to 100), Rice Japonica (rice [2]; [5]): 55 | Plant response rating Rice Japonica (rice [2]; [6]): 85 | Plant response rating, Cotton (cotton; POSTEMERGENCE, Rate 10 g/ha): 10 | Plant response rating, Cotton (cotton; POSTEMERGENCE, Rate 50 g/ha): 10 | Plant response rating, Cotton (cotton; PREEMERGENCE, Rate 10 g/ha): 1 | Plant response rating, Cotton (cotton; PREEMERGENCE, Rate 50 g/ha): 2
